{"source": "paper PMC5301048", "about": "“Selection and early clinical evaluation of the brain‐penetrant 11β‐hydroxysteroid dehydrogenase type 1 (11β‐HSD1) inhibitor UE2343 (Xanamem™)” (British Journal of Pharmacology, 2017)", "key": {"[1]": {"assay": "Tissue exposure measurements in rats (plasma and brain)", "type": "in vivo", "settings": "rat", "experimental": "The circulating plasma levels and tissue distribution of compounds were determined according to the method described in WO2011135276 (Webster et al., 2011a). Animals were group‐housed, had free access to food and water and were maintained in accordance with UK Home Office regulations. The animal work was conducted under UK Home Office Project Licence no. PPL 60/3915.\nCompounds were prepared in 0.9% saline containing 2% DMSO (v^.v^‐1) and 38% PEG400 (v^.v^‐1) and administered to male Sprague Dawley rats by oral gavage such that the final concentration of compound was 10 mg·kg^−1. Rats (n = 3 per time point) were killed by decapitation at 1, 4 and 6 h post dosing, and trunk blood and tissues (liver, adipose and brain) were excised. Blood samples at 0.5 and 2 h post dosing were taken by a tail nick from the 4 and 6 h rats respectively.\nCompounds were triple extracted from plasma (prepared from blood by a high speed centrifugation step) and spiked with 1 μg of a standard compound using ethyl acetate. Extracts were dried under nitrogen and re‐suspended in 60% methanol/40% ammonium acetate (5 mM).\nA known weight of tissue was homogenized in 3 volumes of Krebs buffer. The compound was triple extracted with ethyl acetate from the supernatant of a low speed spin spiked with […] of a standard compound. Extracts were dried under nitrogen and re‐suspended in 60% methanol/40% ammonium acetate (5 mM).\nSamples from plasma and tissue were analysed by TSQ Quantum Discovery Tandem Mass Spectrometer and Surveyor Liquid Chromatogram (Thermo, Hemel‐Hempstead, UK). Then 10 μL of each sample was injected in a mobile phase consisting of 60% methanol/40% ammonium acetate (5 mM) at a flow rate of 0.5 mL·min^−1. The column used was a BDS hypersil C18, 50 × 2.1 mm with a 5 μm particle size.\nEach compound was tuned with a spray voltage of 3000 V and a capillary temperature of 300°C, and values for tube lens, CID and product ions were determined. The peak area for each compound and for the internal standard was determined, and the concentration of compound ^. g^‐1 of tissue or mL^‐1 of plasma was calculated by comparison of the peak area ratio to a standard curve."}, "[2]": {"assay": "Aqueous solubility at pH 7.4", "type": "physicochemical", "settings": "aqueous phosphate buffer, thermodynamic from solid, pH 7.4, room temperature, mean ± SD [n]", "experimental": "The concentration was quantified by HPLC with reference to a standard calibration curve. The solubility was calculated using the peak areas determined by integration of the peak found at the same retention time as the principal peak in the standard injection."}, "hERG K+ channel": {"molecular_target": "T1, hERG K+ channel (Homo sapiens, UniProt Q12809)", "T1 construct": "Chinese hamster lung cell line stably expressing the full length hERG channel; host or cells: Chinese hamster lung cell line", "T1 sequence (Q12809 whole entry)": "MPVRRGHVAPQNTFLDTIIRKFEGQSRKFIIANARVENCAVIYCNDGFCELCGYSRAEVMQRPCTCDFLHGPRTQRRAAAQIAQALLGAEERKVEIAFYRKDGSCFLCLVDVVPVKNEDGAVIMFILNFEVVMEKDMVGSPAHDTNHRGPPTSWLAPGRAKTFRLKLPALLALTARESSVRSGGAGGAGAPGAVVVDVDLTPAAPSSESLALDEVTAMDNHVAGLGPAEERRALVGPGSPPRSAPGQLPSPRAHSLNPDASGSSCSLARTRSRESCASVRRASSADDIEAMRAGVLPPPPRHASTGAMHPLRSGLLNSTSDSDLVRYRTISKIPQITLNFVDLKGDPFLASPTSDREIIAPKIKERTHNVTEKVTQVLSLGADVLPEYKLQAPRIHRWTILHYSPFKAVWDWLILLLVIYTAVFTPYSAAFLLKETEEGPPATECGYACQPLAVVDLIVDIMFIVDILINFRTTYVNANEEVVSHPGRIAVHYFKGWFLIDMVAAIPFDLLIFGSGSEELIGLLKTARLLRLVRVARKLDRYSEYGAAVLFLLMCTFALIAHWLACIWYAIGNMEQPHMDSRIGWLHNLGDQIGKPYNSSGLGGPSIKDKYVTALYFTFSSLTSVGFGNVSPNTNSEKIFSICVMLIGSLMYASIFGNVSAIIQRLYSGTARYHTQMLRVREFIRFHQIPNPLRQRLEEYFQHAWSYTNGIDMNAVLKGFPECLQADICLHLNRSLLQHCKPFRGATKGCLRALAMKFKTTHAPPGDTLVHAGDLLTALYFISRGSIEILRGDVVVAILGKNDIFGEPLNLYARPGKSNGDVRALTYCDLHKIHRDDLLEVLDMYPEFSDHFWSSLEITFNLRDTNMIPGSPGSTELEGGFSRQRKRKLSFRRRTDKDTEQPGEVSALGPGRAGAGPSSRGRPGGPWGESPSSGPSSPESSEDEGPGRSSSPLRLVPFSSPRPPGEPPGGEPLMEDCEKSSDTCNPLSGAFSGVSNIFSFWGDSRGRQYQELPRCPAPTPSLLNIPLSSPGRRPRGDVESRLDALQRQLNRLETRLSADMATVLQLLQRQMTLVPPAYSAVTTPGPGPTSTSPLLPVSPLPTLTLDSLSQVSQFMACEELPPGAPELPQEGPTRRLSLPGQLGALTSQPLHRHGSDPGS", "assay": "hERG inhibition, IonWorks Quattro patch clamp", "type": "cell-based", "experimental": "Testing was performed by Essen Instruments, Hertfordshire, UK. Compounds were tested for inhibition of the human ether a go‐go related gene (hERG) K+ channel in a Chinese hamster lung cell line stably expressing the full length hERG channel. Single cell ionic currents were measured in the perforated patch clamp configuration at room temperature using an IonWorks Quattro instrument. Eight‐point concentration–response curves were generated using threefold serial dilutions from the maximum final assay concentration. IC50 values were obtained from a four‐parameter logistic fit of the % inhibition data."}, "[3]": {"assay": "Microsomal stability, rat liver microsomes", "type": "in vitro ADME", "settings": "mean ± SD [n]", "experimental": "Microsomal stability was determined using pooled human, rat or dog liver microsomes according to the method described in WO2011135276 (Webster et al., 2011a)."}, "CYP2D6": {"molecular_target": "T2, CYP2D6 (Homo sapiens, UniProt P10635)", "T2 construct": "tissue Cyprotex Discovery Limited; host or cells: human liver microsomes", "T2 sequence (P10635 whole entry, canonical isoform)": "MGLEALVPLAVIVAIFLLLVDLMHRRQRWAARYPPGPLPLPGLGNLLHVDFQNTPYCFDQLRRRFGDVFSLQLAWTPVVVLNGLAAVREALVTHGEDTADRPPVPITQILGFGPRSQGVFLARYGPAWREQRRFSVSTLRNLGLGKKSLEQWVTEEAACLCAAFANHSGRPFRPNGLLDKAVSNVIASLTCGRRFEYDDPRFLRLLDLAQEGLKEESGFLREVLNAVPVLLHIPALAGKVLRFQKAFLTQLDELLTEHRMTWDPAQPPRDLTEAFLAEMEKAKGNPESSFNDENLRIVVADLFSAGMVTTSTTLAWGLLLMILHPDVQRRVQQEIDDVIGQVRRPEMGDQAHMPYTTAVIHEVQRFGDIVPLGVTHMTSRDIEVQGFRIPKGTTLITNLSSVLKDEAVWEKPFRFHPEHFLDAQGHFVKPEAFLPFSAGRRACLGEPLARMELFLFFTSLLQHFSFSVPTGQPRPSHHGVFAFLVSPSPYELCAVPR", "assay": "Cytochrome P450 inhibition, CYP2D6", "type": "in vitro ADME", "settings": "human liver microsomes; read-out: CYP450 isoform 2D6 IC50", "experimental": "Testing was performed by Cyprotex Discovery Limited, Cheshire, UK. Six test compound concentrations (0.4, 1, 4, 10, 40 and 100 μM; final DMSO concentration 0.25%, final microsome concentration 0.25 mg·mL^−1) were either pre‐incubated for 30 min in the absence and presence of NADPH or underwent a 0 min pre‐incubation with human liver microsomes. At the end of the pre‐incubation period, the probe substrate for each cytochrome P450 (CYP450) isoform (30 μM) and NADPH (1 mM) were then added (final DMSO concentration 0.3%), and the samples were incubated for 5 min at 37°C. Probe substrates were as follows: 1A2 – phenacetin, 2C9 – diclofenac, 2C19 – mephenytoin, 2D6 – dextromethorphan, 3A4 – midazolam and testosterone. Samples were subjected to LC–MS/MS analysis to determine metabolite concentrations. A decrease in the formation of the metabolite compared with vehicle control was used to calculate an IC50 value (test compound concentration which produces 50% inhibition) for each experimental condition."}, "[4]": {"assay": "Pharmacokinetics in dog (i.v. and p.o.)", "type": "in vivo", "settings": "for bioavailability: p.o. 5 mg·kg^−1 vs i.v. 1 mg·kg^−1, mean ± SD", "experimental": "Pharmacokinetic studies were carried out at Charles River, UK. For both i.v. and p.o. administration, compounds were prepared in 0.9% saline containing 2% DMSO (v^.v^‐1) and 38% PEG400 (v^.v^‐1). Solutions were passed through 0.22 μm filters prior to administration. Three Beagle dogs each received a single i.v. injection of compound 4 at a dose level of 1 mg·kg^−1. Following a washout period of 1 week, each animal received a single p.o. dose of compound 4 at a dose level of 5 mg·kg^−1.\nAfter a washout period of 6 weeks, the same three dogs each received a single i.v. injection of compound 7 at a dose level of 1 mg·kg^−1. Following a washout period of 1 week, each animal received a single p.o. dose of compound 7 at a dose level of 5 mg·kg^−1.\nPlasma samples were obtained up to 24 h post dose administration, and the concentration of each test item in plasma was determined using LC–MS/MS. Pharmacokinetic parameters were derived by non‐compartmental analysis using WinNonLin pharmacokinetic software."}}, "note": "Where two headings read alike, the source gives them in different places.", "data": [{"smiles": "O=C(c1csc(-c2cn[nH]c2)c1)N1C2CCC1CC(O)(c1ncccn1)C2", "note": "(centres unmarked) [compound 4]", "values": [{"measurement": "Kp", "setting": "[1]; male, Sprague Dawley, brain (relative to free plasma), oral, 10 mg·kg^−1, rat plasma protein binding taken into account, read-out: brain : plasma free ratio", "value": 0.43}, {"measurement": "Kp", "setting": "[1]; male, Sprague Dawley, brain and plasma, 10 mg·kg^−1 oral gavage, read-out: Brain : plasma ratio", "value": 0.11}, {"measurement": "Cmax", "setting": "[1]; male, Sprague Dawley, plasma, po, 10 mg/kg, 10 mg·kg^−1 oral gavage, mean ± SD", "value": "1540 ± 657", "unit": "ng/mL"}, {"measurement": "level in brain as % of the free plasma concentration", "setting": "[1]", "value": 43, "unit": "%"}, {"measurement": "Brain Cmax", "setting": "[1]; 10 mg·kg^−1 oral gavage, mean ± SD", "value": "173 ± 80", "unit": "ng/mL"}, {"measurement": "solubility", "setting": "[2]", "value": 200, "unit": "µg/mL"}, {"measurement": "IC50", "setting": "hERG K+ channel; Chinese hamster lung cells expressing hERG, mean ± SD [n]", "value": "> 30", "unit": "µM"}, {"measurement": "inhibition of the hERG channel", "setting": "hERG K+ channel; up to a concentration of 30 μM, in words", "value": "only marginal inhibition"}, {"measurement": "Liver microsomal stability (% parent at 30 min), rat", "setting": "[3]", "value": "74 ± 1 [3] % parent at 30 min"}, {"measurement": "IC50", "setting": "CYP2D6", "value": "> 50", "unit": "µM"}, {"measurement": "clearance", "setting": "[4]; Beagle, plasma, iv, i.v. 1 mg·kg^−1, mean ± SD", "value": "4.68 ± 1.12", "unit": "mL/min/kg"}, {"measurement": "half-life", "setting": "[4]; Beagle, plasma, mean ± SD", "value": "2.79 ± 0.84", "unit": "h"}, {"measurement": "Tmax", "setting": "[4]; Beagle, plasma, oral, 5 mg·kg^−1", "value": 1, "unit": "h"}, {"measurement": "bioavailability", "setting": "[4]; Beagle, plasma, oral", "value": "> 100", "unit": "%"}, {"measurement": "Cmax", "setting": "[4]; Beagle, plasma, po, p.o. 5 mg·kg^−1, mean ± SD", "value": "4590 ± 546", "unit": "ng/mL"}, {"measurement": "bioavailability", "setting": "[4]; Beagle, plasma, po", "value": "170 ± 40", "unit": "%"}, {"measurement": "oral exposure relative to compound 7", "setting": "[4]; p.o., in words", "value": "greater than threefold higher"}]}]}
